In US9359308B2, “Pyrazine kinase inhibitors” (Portola Pharmaceuticals, Inc., priority 2011, dated 2016):

biological target: T1, full length active recombinant SYK enzyme (Homo sapiens, UniProt P43405); assay: Inhibition of Syk tyrosine phosphorylation activity (LANCE TR-FRET kinase assay); assay type: biochemical; conditions: activity in the Syk assays, class symbols
T1 construct: full length active recombinant SYK enzyme (Millipore, Calif.); purchased Millipore
From the text: The in vitro and in vivo human Syk activities of the inventive compounds can be determined by various procedures known in the art, such as a test for their ability to inhibit the activity of human plasma Syk. […] The IC50 value is the concentration (in nM) of the compound required to provide 50% inhibition of human Syk proteolytic activity.
An in vitro assay for detecting and measuring inhibition activity against Syk is as follows:
Inhibition of Syk Tyrosine Phosphorylation Activity
Potency of candidate molecules for inhibiting Syk tyrosine phosphorylation activity is assessed by measuring the ability of a test compound to inhibit Syk-mediated tyrosine phosphorylation of a Syk-specific substrate.
SYK tyrosine phosphorylation activity is measured using the LANCE™ Technology developed by Perkin Elmer Life and Analytical Sciences (Boston, Mass.). LANCE™ refers to homogeneous time resolved fluorometry applications using techniques such as time-resolved fluorescence resonance energy transfer assay (TR-FRET) (see generally for procedures in Perkin Elmer Application Note-How to Optimize a Tyrosine Kinase Assay Using Time Resolved Fluorescence-Based LANCE Detection, wwww.perkinelmer.com/lifesciences). The assay principle involves detection of a phosphorylated substrate using energy transfer from a phosphospecific europium-labeled antibody to streptavidin-allophycocyanin as an acceptor.
To test the ability of candidate molecules to inhibit SYK tyrosine phosphorylation activity, molecules are reconstituted in 30% DMSO and serially diluted 1:3 with the final dilution containing DMSO in the absence of the candidate molecule. The final DMSO concentration in the assay is 3%. Kinase assays are performed as a two part reaction. The first reaction is a kinase reaction and which comprises of a candidate molecule, full length active recombinant SYK enzyme (Millipore, Calif.) and biotin-labeled SYK-specific substrate biotin-DEEDYESP-OH. The second reaction involves termination of the kinase reaction and the simultaneous addition of the detection reagents-europium-labeled anti-phosphotyrosine reagent (Eu-W1024-PY100, Perkin Elmer, Boston, Mass.) and Streptavidin-Allophycocyanin detection reagent (SA-APC, Prozyme, CA). The kinase reaction is performed in a black U-bottom 96-well microtitre plate. The final reaction volume is 50 μL and contains a final concentration of 1 nM active SYK enzyme, 550 nM SYK-substrate, and 100 μM ATP diluted in a buffer containing 50 mM Tris pH 7.5, 5 mM MgCl2, and 1 mM DTT. The reaction is allowed to proceed for 1 hour at room temperature. The quench buffer contains 100 mM Tris pH 7.5, 300 mM NaCl2, 20 mM EDTA, 0.02% Brij35, and 0.5% BSA. The detection reagents are added to the reaction mixture at the following dilutions-1:500 for Eu-W1024-PY100 and 1:250 for SA-APC. The kinase reaction is terminated by the addition of 50 μL quench buffer containing the detection reagents. The detection is allowed to proceed for 1 hr at room temperature. Detection of the phosphorlated substrate in the absence and presence of inhibitors is measured in the TR-FRET instrument, Analyst HT (Molecular Probes, Sunnyvale, Calif.) and the condition for measurements are set up using CriterionHost Release 2.0 (Molecular Probes, Sunnyvale, Calif.). The settings used are a follows: excitation 360 nm, emission 665-7.5 nm, beam splitter 350 nm 50/50, flash 100 pulses, delay 60 us, integration 400 us, z-height 2 mm. Inhibition of SYK-tyrosine kinase activity is calculated as the maximum response observed in the presence of inhibitor, compared to that in the absence of inhibitor. IC50s were derived by non-linear regression analysis.

SMILES | IC50
CC[C@@H](Nc1cnc(C(N)=O)c(Nc2ccc(-c3ccncc3)cc2)n1)C(N)=O [Example 28, (R)-5-(1-amino-1-oxobutan-2-ylamino)-3-(4-(pyridin-4-yl)phenylamino)pyrazine-2-carboxamide] | 1 to 10 nM
CC[C@@H](Nc1cnc(C(N)=O)c(Nc2ccc(-c3cccnc3)cc2)n1)C(N)=O [Example 29, (R)-5-(1-amino-1-oxobutan-2-ylamino)-3-(4-(pyridin-3-yl)phenylamino)pyrazine-2-carboxamide] | 1 to 10 nM
CC[C@@H](Nc1cnc(C(N)=O)c(Nc2ccc3c(c2)CCC(=O)N3)n1)C(N)=O [Example 30, (R)-5-(1-amino-1-oxobutan-2-ylamino)-3-(2-oxo-1,2,3,4-tetrahydroquinolin-6-ylamino)pyrazine-2-carboxamide] | 1 to 10 nM
NC(=O)c1ncc(N[C@H](Cc2ccccc2)C(N)=O)nc1Nc1ccc2ncccc2c1 [Example 31, (R)-5-(1-amino-1-oxo-3-phenylpropan-2-ylamino)-3-(quinolin-6-ylamino)pyrazine-2-carboxamide] | 1 to 10 nM
NC(=O)c1ncc(N[C@H](Cc2cccs2)C(N)=O)nc1Nc1ccc2ncccc2c1 [Example 32, (R)-5-(1-amino-1-oxo-3-(thiophen-2-yl)propan-2-ylamino)-3-(quinolin-6-ylamino)pyrazine-2-carboxamide] | < 1 nM
NC(=O)c1ncc(N[C@@H](C(N)=O)c2ccccc2)nc1Nc1ccc2ncccc2c1 [Example 33, (R)-5-(2-amino-2-oxo-1-phenylethylamino)-3-(quinolin-6-ylamino)pyrazine-2-carboxamide] | 1 to 10 nM
NC(=O)c1ncc(NC2(C(N)=O)CCC2)nc1Nc1ccc2ncccc2c1 [Example 34, 5-(1-carbamoylcyclobutylamino)-3-(quinolin-6-ylamino)pyrazine-2-carboxamide] | 1 to 10 nM
NC(=O)c1ncc(N[C@@H]2CCCC[C@@H]2N)nc1NC1CCOCC1 [Example 35, 5-((1R,2S)-2-aminocyclohexylamino)-3-(tetrahydro-2H-pyran-4-ylamino)pyrazine-2-carboxamide] | > 1000 nM
NC(=O)c1ncc(N[C@@H]2CCCC[C@@H]2N)nc1NC1CCCC1 [Example 36, 5-((1R,2S)-2-aminocyclohexylamino)-3-(cyclopentylamino)pyrazine-2-carboxamide] | > 1000 nM
NC(=O)c1ncc(N[C@@H]2CCCC[C@@H]2N)nc1NC1Cc2ccccc2C1 [Example 37, 5-((1R,2S)-2-aminocyclohexylamino)-3-(2,3-dihydro-1H-inden-2-ylamino)pyrazine-2-carboxamide] | 10 to 100 nM
NC(=O)c1ncc(N[C@@H]2CCCC[C@@H]2N)nc1N[C@@H]1CCc2ccccc21 [Example 38, 5-((1R,2S)-2-aminocyclohexylamino)-3-((R)-2,3-dihydro-1H-inden-1-ylamino)pyrazine-2-carboxamide] | 100 to 1000 nM
NC(=O)c1ncc(N[C@@H]2CCCC[C@@H]2N)nc1N[C@H]1CCc2ccccc21 [Example 39, 5-((1R,2S)-2-aminocyclohexylamino)-3-((S)-2,3-dihydro-1H-inden-1-ylamino)pyrazine-2-carboxamide] | 100 to 1000 nM
NC(=O)c1ncc(N[C@@H]2CCCC[C@@H]2N)nc1Nc1cc(-n2cccn2)cc(-n2cccn2)c1 [Example 44, 5-((1R,2S)-2-aminocyclohexylamino)-3-(3,5-di(1H-pyrazol-1-yl)phenylamino)pyrazine-2-carboxamide] | 1 to 10 nM
NC(=O)c1ncc(N[C@@H]2CCCC[C@@H]2N)nc1Nc1cc(-c2ncccn2)cc(-n2cccn2)c1 [Example 45, 3-(3-(1H-pyrazol-1-yl)-5-(pyrimidin-2-yl)phenylamino)-5-((1R,2S)-2-aminocyclohexylamino)pyrazine-2-carboxamide] | 1 to 10 nM
NC(=O)c1ncc(N[C@@H]2CCNC2)nc1Nc1cnc2ccccc2c1 [Example 55, (R)-5-(pyrrolidin-3-ylamino)-3-(quinolin-3-ylamino)pyrazine-2-carboxamide] | 1 to 10 nM
NC(=O)c1ncc(N[C@@H]2CCNC2)nc1Nc1ccc2ncccc2c1 [Example 56, (R)-5-(pyrrolidin-3-ylamino)-3-(quinolin-6-ylamino)pyrazine-2-carboxamide] | 1 to 10 nM
NC(=O)c1ncc(N[C@H]2CCCNC2)nc1Nc1cnc2ccccc2c1 [Example 57, (S)-5-(piperidin-3-ylamino)-3-(quinolin-3-ylamino)pyrazine-2-carboxamide] | 100 to 1000 nM
NC(=O)c1ncc(N[C@H]2CCCNC2)nc1Nc1ccc2ncccc2c1 [Example 58, (S)-5-(piperidin-3-ylamino)-3-(quinolin-6-ylamino)pyrazine-2-carboxamide] | 10 to 100 nM
CC(=O)N1CCN(c2ccc(Nc3nc(NC4CC4)cnc3C(N)=O)cc2)CC1 [Example 59, 3-(4-(4-acetylpiperazin-1-yl)phenylamino)-5-(cyclopropylamino)pyrazine-2-carboxamide] | 100 to 1000 nM
CC(=O)N1CCN(c2ccc(Nc3cnc(C(N)=O)c(NC4CC4)n3)cc2)CC1 [Example 60, 5-(4-(4-acetylpiperazin-1-yl)phenylamino)-3-(cyclopropylamino)pyrazine-2-carboxamide] | > 1000 nM
Cc1cccc(Nc2nc(N[C@@H]3CCCC[C@@H]3N)cnc2C(N)=O)c1 [Example 61, 5-((1R,2S)-2-aminocyclohexylamino)-3-(m-tolylamino)pyrazine-2-carboxamide] | 100 to 1000 nM
NC(=O)c1ncc(N[C@@H]2CCCC[C@@H]2N)nc1Nc1ccc(-n2cccn2)cc1 [Example 62, 3-(4-(1H-pyrazol-1-yl)phenylamino)-5-((1R,2S)-2-aminocyclohexylamino)pyrazine-2-carboxamide] | 100 to 1000 nM
Cc1cccc(Nc2nc(N[C@H](CC(C)C)C(N)=O)cnc2C(N)=O)c1 [Example 63, (R)-5-(1-amino-4-methyl-1-oxopentan-2-ylamino)-3-(m-tolylamino)pyrazine-2-carboxamide] | 10 to 100 nM
CC(C)C[C@@H](Nc1cnc(C(N)=O)c(Nc2cccc(-n3nccn3)c2)n1)C(N)=O [Example 64, (R)-3-(3-(2H-1,2,3-triazol-2-yl)phenylamino)-5-(1-amino-4-methyl-1-oxopentan-2-ylamino)pyrazine-2-carboxamide] | 10 to 100 nM
CC(C)[C@@H](Nc1cnc(C(N)=O)c(Nc2cccc(-n3nccn3)c2)n1)C(N)=O [Example 65, (R)-3-(3-(2H-1,2,3-triazol-2-yl)phenylamino)-5-(1-amino-3-methyl-1-oxobutan-2-ylamino)pyrazine-2-carboxamide] | 10 to 100 nM
CC(C)[C@@H](Nc1cnc(C(N)=O)c(Nc2cnc3ccccc3c2)n1)C(N)=O [Example 66, (R)-5-(1-amino-3-methyl-1-oxobutan-2-ylamino)-3-(quinolin-3-ylamino)pyrazine-2-carboxamide] | 1 to 10 nM
CC(C)[C@@H](Nc1cnc(C(N)=O)c(Nc2ccc3ncccc3c2)n1)C(N)=O [Example 67, (R)-5-(1-amino-3-methyl-1-oxobutan-2-ylamino)-3-(quinolin-6-ylamino)pyrazine-2-carboxamide] | 1 to 10 nM
NC(=O)c1ncc(N[C@@H](C(N)=O)C2CC2)nc1Nc1cnc2ccccc2c1 [Example 68, (R)-5-(2-amino-1-cyclopropyl-2-oxoethylamino)-3-(quinolin-3-ylamino)pyrazine-2-carboxamide] | 1 to 10 nM
Cc1ccc(Nc2nc(N[C@H](CC(C)C)C(N)=O)cnc2C(N)=O)cc1 [Example 69, (R)-5-(1-amino-4-methyl-1-oxopentan-2-ylamino)-3-(p-tolylamino)pyrazine-2-carboxamide] | 10 to 100 nM
CC(C)C[C@@H](Nc1cnc(C(N)=O)c(Nc2cncc(F)c2)n1)C(N)=O [Example 70, (R)-5-(1-amino-4-methyl-1-oxopentan-2-ylamino)-3-(5-fluoropyridin-3-ylamino)pyrazine-2-carboxamide] | 10 to 100 nM
